Consider two molecules from patent US12268683B2, “Compounds and methods for synergistic activation of M channels” (THE REGENTS OF THE UNIVERSITY OF CALIFORNIA, priority 2018, dated 2025).

The structures appear in SMILES notation.

One series addresses KCNQ2/KCNQ3-R242A (Homo sapiens, UniProt O43525+O43526, R242A). The series is described as follows: TEVC of KCNQ2/KCNQ3-R242A channels. Type of series: cell-based. From the text:
(§1) As previously described (12), we generated cRNA transcripts encoding human KCNA1, KCNE1, KCNE2, KCNE3, KCNQ1, KCNQ2, KCNQ3, KCNQ4 or KCNQ5 by in vitro transcription using the T7 polymerase mMessage mMachine kit (Thermo Fisher Scientific), after vector linearization, from cDNA sub-cloned into plasmids incorporating Xenopus laevis β-globin 5′ and 3′ UTRs flanking the coding region to enhance translation and cRNA stability. We quantified cRNA by spectrophotometry. We generated mutant KCNQ2 and KCNQ3 cDNAs by site-directed mutagenesis with a QuikChange kit (Stratagene, San Diego, Calif.) and prepared the cRNAs as above. We injected defolliculated stage V and VI Xenopus laevis oocytes (Ecocyte Bioscience, Austin, Tex. and Xenoocyte, Dexter, Mich., US) with KCNE and/or KCNQ cRNAs (5-20 ng). […]
(§2) We performed TEVC at room temperature using an OC-725C amplifier (Warner Instruments, Hamden, Conn.) and pClamp10 software (Molecular Devices, Sunnyvale, Calif.) 2-5 days after cRNA injection as described in the section above. […] We recorded currents in response to voltage pulses between −120 or −80 mV and +40 mV at 20 mV intervals from a holding potential of −80 mV, to yield current-voltage relationships, current magnitude, and for quantifying activation rate. We analyzed data using Clampfit (Molecular Devices) and Graphpad Prism software (GraphPad, San Diego, Calif., USA); values are stated as mean±SEM. […]

The next series concerns the target KCNQ2-R213A/KCNQ3 (Homo sapiens, UniProt O43525+O43526, R213A). Put plainly: TEVC of KCNQ2-R213A/KCNQ3 channels. Type of series: cell-based.
From the text: as §1, §2

The target in the next series is KCNQ1/KCNE2 (Homo sapiens, UniProt P51787). Put plainly: TEVC of KCNQ1/KCNE2 channels. Type of series: cell-based.
From the text: as §1, §2

Another series has as its target KCNQ1/KCNE1 (Homo sapiens, UniProt P51787). Put plainly: TEVC of KCNQ1/KCNE1 channels. The series is classed as cell-based.
From the text: as §1, §2

The conditions of series [1]: rats fed Mallotus philippensis extract; cited from earlier work.

For `CCCCCCCCC/C=C/C=O` [(E)-2-dodecenal], the “response of KCNQ2/KCNQ3-R242A (in words)” value at KCNQ2/KCNQ3-R242A was “almost as much as wild-type KCNQ2/3”. The “effect on KCNQ2-R213A/KCNQ3 (in words)” value on KCNQ2-R213A/KCNQ3 is recorded as “completely insensitive”. In addition, the “effect on KCNQ1/KCNE2 (in words)” value on KCNQ1/KCNE2 was “minimal effects”. Besides, the “sensitivity of KCNQ1-KCNE1, fold less sensitive than KCNQ1” value at KCNQ1/KCNE1 is listed as “> twofold”. The EC50 on KCNQ1/KCNE1 (read-out: EC50 of KCNQ1/KCNE1 activation) came to 260 ± 100 nM.
`CC(=O)c1c(O)c(C)c(O)c(Cc2c(O)c3c(c(C(=O)/C=C/c4ccccc4)c2O)OC(C)(C)C=C3)c1O` [MTX, mallotoxin]: in series [1], the oral bioavailability is listed as over 20% and the plasma concentration entry was “exceeded 2 μg/ml”.
